Reference: patent publication US12606541B2, “PPARg modulators and methods of use” (Eisai R&D Management Co., Ltd., priority 2020, dated 2026)
Where two headings read alike, the source gives them in different places.

What was measured:
His6-TEV-PPARγ-(234-505) = biological target: T1, His6-TEV-PPARγ-(234-505) (Homo sapiens, UniProt P37231); experiment: TR-FRET Assay to Measure Co-R Peptide Recruitment to PPARγ; type: biochemical; details: Co-R peptide (SMRT-ID2) recruitment, top final concentration 20 μM, read-out: TR-FRET i-Ag, AC50
T1 construct: The His6-TEV-PPARγ-(234-505) protein for assay was expressed and purified; TEV cleavage site (N); made in house
T1 sequence (P37231 234-505): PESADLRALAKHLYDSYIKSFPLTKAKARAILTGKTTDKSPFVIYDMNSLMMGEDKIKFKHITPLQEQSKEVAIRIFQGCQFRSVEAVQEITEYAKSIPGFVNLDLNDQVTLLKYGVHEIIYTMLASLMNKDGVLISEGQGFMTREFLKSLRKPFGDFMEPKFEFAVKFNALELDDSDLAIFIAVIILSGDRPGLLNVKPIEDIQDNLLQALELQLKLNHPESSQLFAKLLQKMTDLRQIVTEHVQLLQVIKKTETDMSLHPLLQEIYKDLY
Summary of the method: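 His-tagged PPARγ (or controls) was preincubated with compound for 20 minutes at room temperature, then 5 nM anti-His terbium antibody and 200 nM FITC-labeled SMRT-ID2 corepressor peptide (final) were added for a further hour. TR-FRET signal was normalized to percent response using 500 nM T0070907 and DMSO controls.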

UM-UC-9 engineered cells = experiment: Cell proliferation / short-term viability assay, CellTiter-Glo 144 h; type: cell-based, human; details: read-out: CTGlo 144 h UMUC9.5, G150
Summary of the method: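 UM-UC-9 engineered assay-ready cells seeded at 500 cells/well in high-glucose DMEM/10% FBS, treated from dose-response plates, grown at 37° C, 5% CO2. CellTiter-Glo 2.0 luminescence read on day 7, with a day-0 pretreatment plate as T0 reference and DMSO wells as negative control.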

Structure (SMILES) | AC50 (His6-TEV-PPARγ-(234-505)) | IC50 (UM-UC-9 engineered cells; Homo sapiens, UM-UC-9, 144 h) | further results
COc1cc(-c2cc(C(=O)N3CCC(C(=O)NC4CCC(C)CC4)CC3)n[nH]2)c(Cl)cn1 (single isomer, unassigned) [Example 101-B] | 9.2 nM | – | IC50 (UM-UC-9 engineered cells; listed as 101b): 84 nM
COc1cc(-c2cc(C(=O)N3CCC(C(=O)NCc4cn5ccccc5n4)CC3)n[nH]2)c(Cl)cn1 [Example 119, 1-(5-(5-chloro-2-methoxypyridin-4-yl)-1H-pyrazole-3-carbonyl)-N-(imidazo[1,2-a]pyridin-2-ylmethyl)piperidine-4-carboxamide] | 337 nM | > 5000 nM | –
COc1cc(-c2cc(C(=O)N3CCC(C(=O)NC4CCCc5cnccc54)CC3)n[nH]2)c(Cl)cn1 (racemic) [Example 191, 1-(5-(5-chloro-2-methoxypyridin-4-yl)-1H-pyrazole-3-carbonyl)-N-(5,6,7,8-tetrahydroisoquinolin-5-yl)piperidine-4-carboxamide] | 838 nM | 2010 nM | –
COc1cc(-c2cc(C(=O)N3CCC(C(=O)NCc4cnccc4C)CC3)n[nH]2)c(Cl)cn1 [Example 131, 1-(5-(5-chloro-2-methoxypyridin-4-yl)-1H-pyrazole-3-carbonyl)-N-((4-methylpyridin-3-yl)methyl)piperidine-4-carboxamide] | 494 nM | 2610 nM | –
COc1cc(-c2cc(C(=O)N3CC[C@H](C(=O)NCc4cccc(Cl)c4)CC34CCC4)n[nH]2)c(Cl)cn1 (single isomer, unassigned) [Example 256-A] | 92.4 nM | 72.6 nM | –
COc1cc(-c2[nH]nc(C(=O)N3CCC(C(=O)NC4CCC(C)CC4)CC3)c2Cl)ccn1 (single isomer, unassigned) [Example 110-B] | – | – | AC50 (His6-TEV-PPARγ-(234-505); listed as 110b): 217 nM; IC50 (UM-UC-9 engineered cells; listed as 110b): 697 nM
COc1cc(-c2[nH]nc(C(=O)N3CCC(C(=O)NC4CCC(C)CC4)CC3)c2Cl)ccn1 (single isomer, unassigned) [Example 110-A] | – | – | AC50 (His6-TEV-PPARγ-(234-505); listed as 110a): 2160 nM; IC50 (UM-UC-9 engineered cells; listed as 110a): 3190 nM
COc1cc(-c2cc(C(=O)N3CCC(C(=O)NCc4ccc5oc(=O)n(C)c5c4)CC3)n[nH]2)c(Cl)cn1 [Example 228, 1-(5-(5-chloro-2-methoxypyridin-4-yl)-1H-pyrazole-3-carbonyl)-N-((3-methyl-2-oxo-2,3-dihydrobenzo[d]oxazol-5-yl)methyl)piperidine-4-carboxamide] | 490 nM | > 10000 nM | –
COc1cc(-c2cc(C(=O)N3CCC(C(=O)NCc4ccc(OC(F)F)cc4)CC3)n[nH]2)c(Cl)cn1 [Example 151, 1-(5-(5-chloro-2-methoxypyridin-4-yl)-1H-pyrazole-3-carbonyl)-N-(4-(difluoromethoxy)benzyl)piperidine-4-carboxamide] | 48.1 nM | 539 nM | –
COc1cc(-c2cc(C(=O)N3CCC(C(=O)NCc4ccc(OC(F)(F)F)cc4)CC3)n[nH]2)c(Cl)cn1 [Example 164, 1-(5-(5-chloro-2-methoxypyridin-4-yl)-1H-pyrazole-3-carbonyl)-N-(4-(trifluoromethoxy)benzyl)piperidine-4-carboxamide] | 608 nM | 1010 nM | –
COc1cc(-c2cc(C(=O)N3CCC(C(=O)NCc4ccc5[nH]nc(F)c5c4)CC3)n[nH]2)c(F)cn1 [Example 200, N-((3-fluoro-1H-indazol-5-yl)methyl)-1-(5-(5-fluoro-2-methoxypyridin-4-yl)-1H-pyrazole-3-carbonyl)piperidine-4-carboxamide] | 112 nM | 71.5 nM | –
COc1cc(-c2cc(C(=O)N3CCC(C(=O)NCc4ncoc4C(F)(F)F)CC3)n[nH]2)c(Cl)cn1 [Example 221, 1-(5-(5-chloro-2-methoxypyridin-4-yl)-1H-pyrazole-3-carbonyl)-N-((5-(trifluoromethyl)oxazol-4-yl)methyl)piperidine-4-carboxamide] | 279 nM | 1730 nM | –
COc1cc(-c2cc(C(=O)N3CC[C@H](C(=O)NCc4cccc(Cl)c4)CC34CC4)n[nH]2)c(Cl)cn1 (single isomer, unassigned) [Example 245-A] | 8.3 nM | 4.1 nM | –

Further lines, with some results ahead:

AC50 (His6-TEV-PPARγ-(234-505)) | Structure (SMILES) | IC50 (UM-UC-9 engineered cells; Homo sapiens, UM-UC-9, 144 h) | further results
26.7 nM | COc1cc(-c2cc(C(=O)N3CC[C@@H](C(=O)NCc4cccc(Cl)c4)C[C@H]3C)n[nH]2)c(Cl)cn1 [Example 273, (2R,4R)-1-(5-(5-chloro-2-methoxypyridin-4-yl)-1H-pyrazole-3-carbonyl)-N-(3-chlorobenzyl)-2-methylpiperidine-4-carboxamide] | 213 nM | –
327 nM | COc1cc(-c2cc(C(=O)N3CC[C@H](C(=O)NCc4ncc(N5CC6CC5CN6)cn4)CC34CC4)n[nH]2)c(F)cn1 (single isomer, unassigned) [Example 467-A] | – | IC50 (UM-UC-9 engineered cells): > 10000 nM
452 nM | COc1cc(-c2cc(C(=O)N3CC[C@@H](C(=O)N[C@H]4CC[C@@](OCCN(C)C)(C(F)(F)F)CC4)CC34CC4)n[nH]2)c(F)cn1 [Example 329-B, (R)—N-((1r,4R)-4-(2-(dimethylamino)ethoxy)-4-(trifluoromethyl)cyclohexyl)-4-(5-(5-fluoro-2-methoxypyridin-4-yl)-1H-pyrazole-3-carbonyl)-4-azaspiro[2.5]octane-7-carboxamide] | 1650 nM | –
951 nM | COc1cc(-c2cc(C(=O)N3CC[C@H](C(=O)NCc4ncc(N5C[C@H]6C[C@@H]5CN6)cn4)CC34CC4)[nH]n2)c(F)cn1 (mixture of isomers) [Example 467, (S)—N-((5-((1R,4R)-2,5-diazabicyclo[2.2.1]heptan-2-yl)pyrimidin-2-yl)methyl)-4-(3-(5-fluoro-2-methoxypyridin-4-yl)-1H-pyrazole-5-carbonyl)-4-azaspiro[2.5]octane-7-carboxamide and (S)—N-((5-((1S,4S)-2,5-diazabicyclo[2.2.1]heptan-2-yl)pyrimidin-2-yl)methyl)-4-(3-(5-fluoro-2-methoxypyridin-4-yl)-1H-pyrazole-5-carbonyl)-4-azaspiro[2.5]octane-7-carboxamide] | > 10000 nM | –
25.6 nM | CCO[C@]1(C(F)(F)F)CC[C@H](NC(=O)[C@H]2CCN(C(=O)c3cc(-c4cc(C)ncn4)[nH]n3)C3(CC3)C2)CC1 (single isomer, unassigned) [Example 308-D] | 192 nM | –
281 nM | CO[C@]1(C(F)(F)F)CC[C@@H](NC(=O)[C@@H]2CCN(C(=O)c3cc(-c4cc(C)ncc4F)[nH]n3)C3(CC3)C2)CC1 (single isomer, unassigned) [Example 293-A] | 874 nM | –
548 nM | CCOC1(C(F)(F)F)CCC(NC(=O)[C@@H]2CCN(C(=O)c3cc(-c4cc(C)ncn4)[nH]n3)C3(CC3)C2)CC1 (mixture of isomers) [Example 308-B, (R)—N-(4-ethoxy-4-(trifluoromethyl)cyclohexyl)-4-(5-(6-methylpyrimidin-4-yl)-1H-pyrazole-3-carbonyl)-4-azaspiro[2.5]octane-7-carboxamide] | 1010 nM | –
118 nM | Cc1cc(-c2cc(C(=O)N3CC[C@@H](C(=O)N[C@H]4CC[C@@](O)(C(F)(F)F)CC4)CC34CC4)n[nH]2)c(F)cn1 (single isomer, unassigned) [Example 287-B] | 184 nM | –
12.6 nM | COc1cc(-c2cc(C(=O)N3CC[C@H](C(=O)NCc4ncc(F)cc4F)CC34CC4)n[nH]2)c(F)cn1 [Example 400, (S)—N-((3,5-difluoropyridin-2-yl)methyl)-4-(5-(5-fluoro-2-methoxypyridin-4-yl)-1H-pyrazole-3-carbonyl)-4-azaspiro[2.5]octane-7-carboxamide] | 24.3 nM | –
6.7 nM | COc1cc(-c2cc(C(=O)N3CC[C@H](C(=O)Nc4cnn5cc(C(C)=O)ccc45)CC34CC4)n[nH]2)c(F)cn1 [Example 494, (S)—N-(6-acetylpyrazolo[1,5-a]pyridin-3-yl)-4-(5-(5-fluoro-2-methoxypyridin-4-yl)-1H-pyrazole-3-carbonyl)-4-azaspiro[2.5]octane-7-carboxamide] | 80.8 nM | –
11.9 nM | COc1cc(-c2cc(C(=O)N3CC[C@H](C(=O)NCc4ncc(N5CC(C)NC(C)C5)cc4Cl)CC34CC4)n[nH]2)c(F)cn1 (stereo partly drawn) [Example 434, (7S)—N-((3-chloro-5-(3,5-dimethylpiperazin-1-yl)pyridin-2-yl)methyl)-4-(5-(5-fluoro-2-methoxypyridin-4-yl)-1H-pyrazole-3-carbonyl)-4-azaspiro[2.5]octane-7-carboxamide] | 45.3 nM | –
17.4 nM | COc1cc(-c2cc(C(=O)N3CC[C@H](C(=O)NCc4c(C(F)(F)F)cnn4C)CC34CC4)[nH]n2)c(F)cn1 [Example 507, (S)-4-(3-(5-fluoro-2-methoxypyridin-4-yl)-1H-pyrazole-5-carbonyl)-N-((1-methyl-4-(trifluoromethyl)-1H-pyrazol-5-yl)methyl)-4-azaspiro[2.5]octane-7-carboxamide] | 14.1 nM | –
